Target: T1, M1 protein (Streptococcus pyogenes, UniProt Q99XV0)
T1 construct: gene emm1; captured on NTA chip
Test: SPR, single-cycle, steady-state affinity
Type: binding
Settings: protein captured on NTA chip via His tag, PBS, 25 °C

T1 sequence (Q99XV0 entry or part of it): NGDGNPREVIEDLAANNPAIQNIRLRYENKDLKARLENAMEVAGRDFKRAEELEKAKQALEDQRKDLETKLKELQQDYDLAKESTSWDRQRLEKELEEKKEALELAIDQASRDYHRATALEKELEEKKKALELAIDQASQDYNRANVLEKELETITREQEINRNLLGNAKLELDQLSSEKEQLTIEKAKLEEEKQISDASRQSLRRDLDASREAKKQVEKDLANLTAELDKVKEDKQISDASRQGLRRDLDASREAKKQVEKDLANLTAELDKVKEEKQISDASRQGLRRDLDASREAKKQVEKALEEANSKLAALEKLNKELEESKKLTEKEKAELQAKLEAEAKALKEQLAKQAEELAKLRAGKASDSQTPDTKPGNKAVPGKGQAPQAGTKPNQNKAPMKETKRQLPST

Structure (SMILES)	Kd [µM]
C[C@@H]1O[C@@H](O[C@H]2C(O)O[C@H](CO)[C@H](O)[C@@H]2O[C@H]2O[C@H](CO)[C@H](O)[C@H](O)[C@H]2O)[C@@H](O)[C@H](O)[C@@H]1O (some centres unmarked) [blood group B trisaccharide, Galα1-3(Fucα1-2)Gal]	0.518 ± 0.0513
CC(=O)N[C@H]1[C@@H](O[C@H]2[C@@H](O)[C@@H](CO)OC(O)[C@@H]2O[C@@H]2O[C@@H](C)[C@@H](O)[C@@H](O)[C@@H]2O)O[C@H](CO)[C@H](O)[C@@H]1O (some centres unmarked) [7K, GalNAcα1-3(Fucα1-2)Gal]	2.5 ± 0.4

Reference: publication PMC5263248, “Blood Group Antigen Recognition via the Group A Streptococcal M Protein Mediates Host Colonization” (mBio, 2017)
